# Assay results as given in US12264170B2, “Antimicrobial organosilanes” (TOPIKOS SCIENTIFIC, INC., priority 2019, dated 2025).
# Tests used:
# [1] = tested on: Proteus mirabilis and Pseudomonas aeruginosa; assay: Treatment of ocular infection in a dog; format: in vivo; details: male bull dog, 2% aqueous solution 3 times per day; for examination of the eyes: infection in both eyes
# Method: A male bull dog presented with an infection in both eyes which was cultured and tested positive for Proteus mirabilis and Pseudomonas aeruginosa. The dog was administered a 2% aqueous solution of Compound 1 at a rate of 3 times per day for 7 days. […] On day 6, the dog was reexamined. […] To verify, a swab of the eye was taken and cultured. The culture was negative for both Proteus mirabilis and Pseudomonas aeruginosa.
# [2] = tested on: Aspergillus niger; assay: Disk diffusion susceptibility test; format: cell-based
# [3] = tested on: Candida auris CDC 0385; assay: MIC microdilution assay (Example 32); format: cell-based; details: C. auris CDC 0385; RPMI media; 35±2° C. 24 to 48 hours; two values given
# Method: (§1) Strain IDs starting with “ATCC” were acquired from the American Type Culture Collection (Manassas, VA), strain IDs starting with “Eurofins” were acquired from Eurofins (Herndon, VA), while strain IDs starting with “CDC” were acquired from the Centers for Disease Control and Prevention (Atlanta, GA). All strains were maintained as −80° C. frozen glycerol stocks. S. aureus and P. aeruginosa were grown overnight on Tryptic Soy Agar (TSA) plates at 35±2° C., ambient atmosphere, while S. pyogenes was grown overnight on TSA+5% defibrinated sheep blood at 35±2° C., 5% CO2. C. jejuni was grown for 48 hours on TSA+5% defibrinated sheep blood at 35±2° C., in a microaerophilic environment generated by CampyGen sachet. All fungal species (i.e. C. albicans and C. auris) were grown overnight on Sabouraud Dextrose Agar (SDA) plates at 35±2° C., ambient atmosphere.
# (§2) Test article Compound 1 (batch #7G30A9.203) was stored at 4° C. The antibiotic Tobramycin and antifungal Amphotericin B were used as quality control (QC) compounds for the MIC assay. Stock solutions of 3.2 mg/mL Tobramycin (Sigma-Aldrich, cat #T1783-500MG) and 3.2 mg/mL Amphotericin B (CP Lab Chemicals, cat #TOK-A007-1G) were prepared in sterile ultrapure water.
# (§3) For bacteria strains, a few colonies of each strain were collected with a sterile swab and used to make a McFarland 0.5 standard solution (approximately 1×10^8 CFU/mL) in sterile PBS. The McFarland was then diluted 1:180 in Cation Adjusted Muller-Hinton Broth (CAMHB) for S. aureus and P. aeruginosa. S. pyogenes McFarland was diluted 1:180 in CAMHB+5% defibrinated sheep blood, while C. jejuni McFarland was diluted 1:180 in CAMHB+5% laked horse blood. 90 μL of this inoculum was combined with 10 μL of the 10× test article in a 96-well plate for a final concentration of 1×.
# (§4) For the yeasts C. albicans and C. auris, a McFarland 0.5 standard solution in sterile PBS was similarly prepared (approximately 1×10^6 CFU/mL) and was subsequently diluted 1:180 in RPMI 1640 media buffered with 0.165 M MOPS at pH 7.0 (herein referred to as “RPMI media”). 90 μL of the Candida inoculum was combined with 10 μL of the 10× test article in a 96-well plate for a final concentration of 1×.
# (§5) Except for C. jejuni, all bacterial-strain MIC 96-well plates were incubated at 35±2° C. for 18 to 20 hours, ambient atmosphere. C. jejuni was incubated at 35±2° C. for 48 hours, under microaerophilic condition. All Candida MIC 96-well plates were incubated at 35±2° C. for 24 to 48 hours, ambient atmosphere, until growth in control wells were observed. After incubation, the 96-well plates were examined visually and on a spectrophotometer at absorbance OD650. MIC is defined as the lowest concentration of a compound in which no visible growth is observed.
# [4] = tested on: Candida albicans ATCC 90028; assay: MIC microdilution assay (Example 32); format: cell-based; details: C. albicans ATCC 90028 (quality control); RPMI media; 35±2° C. 24 to 48 hours; two values given
# Method: as §1, §2, §3, §4, §5
# [5] = tested on: Fusarium oxysporum; assay: Disk diffusion susceptibility test; format: cell-based
# [6] = tested on: Staphylococcus aureus; assay: Disk diffusion susceptibility test; format: cell-based; details: repeated experiment, FIG. 2
# [7] = tested on: Candida auris CDC 0385; assay: MBC/MFC determination (Example 32); format: cell-based; details: C. auris CDC 0385; plated after 18 to 20 hours incubation or until growth in control wells; two values given
# Method: (§6) 10 μL of liquid from each test condition was plated on the appropriate agar media for each test strain. Except for C. jejuni, all other strains were plated for MBC/MFC after 18 to 20 hours incubation, or until growth in growth control wells were visually observed. MBC for C. jejuni was plated 48 hours after incubation of the 96-well plate. Once the liquid from the 96-well plate has been allowed to air dry in a biosafety cabinet, the agar plates were incubated under the appropriate conditions and colony formation was assessed. MBC/MFC is defined as the lowest concentration of a compound in which no colonies were recovered.
# [8] = tested on: Pseudomonas aeruginosa Eurofins 1674623; assay: MBC/MFC determination (Example 32); format: cell-based; details: P. aeruginosa Eurofins 1674623; plated after 18 to 20 hours incubation; two values given
# Method: as §6
# [9] = tested on: Pseudomonas aeruginosa ATCC 27853; assay: MBC/MFC determination (Example 32); format: cell-based; details: P. aeruginosa ATCC 27853; plated after 18 to 20 hours incubation; two values given
# Method: as §6
# [10] = tested on: Pseudomonas aeruginosa CDC 0248; assay: MBC/MFC determination (Example 32); format: cell-based; details: P. aeruginosa CDC 0248; plated after 18 to 20 hours incubation; two values given
# Method: as §6
# [11] = tested on: Acinetobacter baumannii Eurofins 1674627; assay: MBC/MFC determination (Example 32); format: cell-based; details: A. baumannii Eurofins 1674627; plated after 18 to 20 hours incubation; two values given
# Method: as §6
# [12] = tested on: Candida albicans ATCC 90028; assay: MBC/MFC determination (Example 32); format: cell-based; details: C. albicans ATCC 90028; plated after 18 to 20 hours incubation or until growth in control wells; two values given
# Method: as §6
# [13] = tested on: Streptococcus pyogenes Eurofins 2065755; assay: MBC/MFC determination (Example 32); format: cell-based; details: S. pyogenes Eurofins 2065755; plated after 18 to 20 hours incubation; two values given
# Method: as §6
# [14] = tested on: Campylobacter jejuni CDC 0413; assay: MBC/MFC determination (Example 32); format: cell-based; details: C. jejuni CDC 0413; plated 48 hours after incubation; two values given
# Method: as §6
# [15] = tested on: Mycoplasma pneumoniae; assay: Disk diffusion susceptibility test; format: cell-based; details: repeated experiment, FIG. 2
# [16] = tested on: Enterococcus faecalis; assay: Disk diffusion susceptibility test; format: cell-based
# [17] = tested on: Pseudomonas aeruginosa Eurofins 1674623; assay: MIC microdilution assay (Example 32); format: cell-based; details: P. aeruginosa Eurofins 1674623; CAMHB; 35±2° C. 18 to 20 hours; two values given
# Method: as §1, §2, §3, §5
# [18] = tested on: Pseudomonas aeruginosa ATCC 27853; assay: MIC microdilution assay (Example 32); format: cell-based; details: P. aeruginosa ATCC 27853 (quality control); CAMHB; 35±2° C. 18 to 20 hours; two values given
# Method: as §1, §2, §3, §5
# [19] = tested on: Pseudomonas aeruginosa CDC 0248; assay: MIC microdilution assay (Example 32); format: cell-based; details: P. aeruginosa CDC 0248; CAMHB; 35±2° C. 18 to 20 hours; two values given
# Method: as §1, §2, §3, §5
# [20] = tested on: Streptococcus pyogenes Eurofins 2065755; assay: MIC microdilution assay (Example 32); format: cell-based; details: S. pyogenes Eurofins 2065755; CAMHB+5% defibrinated sheep blood; 35±2° C. 18 to 20 hours; two values given
# Method: as §1, §2, §3, §5
# [21] = tested on: Candida albicans; assay: Disk diffusion susceptibility test; format: cell-based
# [22] = 10 mg/mL, repeated experiment, FIG. 2
# [23] = 100 mg/mL, repeated experiment, FIG. 2
smiles,measurement,setting,value
CCCCCCCCCCCCCCCCCC[N+](C)(C)CCC[Si](OCC(CO)(CO)NCCS(=O)(=O)[O-])(OCC(CO)(CO)NCCS(=O)(=O)[O-])OCC(CO)(CO)NCCS(=O)(=O)O.[Cl-].[Na+].[Na+] [Compound 1],examination of the eyes,[1]; day 2,signs of reduced infection
same,examination of the eyes,[1]; day 6,no sign of infection
same,culture of eye swab for Proteus mirabilis and Pseudomonas aeruginosa,[1]; swab at day 6,negative
same,"inhibition (zone of inhibition), disk diffusion",[2]; [22],complete inhibition
same,"inhibition (zone of inhibition), disk diffusion",[2]; [23],complete inhibition
same,"inhibition (zone of inhibition), disk diffusion","[2]; 1% aqueous solution, FIG. 1",complete inhibition
same,"inhibition (zone of inhibition), disk diffusion","[2]; 2% aqueous solution, FIG. 1",complete inhibition
same,MIC,[3],1 µg/mL
same,MIC,[4],1 µg/mL
same,"inhibition (zone of inhibition), disk diffusion",[5]; [22],complete inhibition
same,"inhibition (zone of inhibition), disk diffusion",[5]; [23],complete inhibition
same,"inhibition (zone of inhibition), disk diffusion","[5]; 1% aqueous solution, FIG. 1",complete inhibition
same,"inhibition (zone of inhibition), disk diffusion","[5]; 2% aqueous solution, FIG. 1",complete inhibition
same,"inhibition (zone of inhibition), disk diffusion",[6]; 1 mg/mL,complete inhibition
same,"inhibition (zone of inhibition), disk diffusion",[6]; 10 mg/mL,complete inhibition
same,"inhibition (zone of inhibition), disk diffusion",[6]; 100 mg/mL,complete inhibition
same,MBC,[7],2 µg/mL
same,MBC,[8],>64 µg/mL
same,MBC,[9],>64 µg/mL
same,MBC,[10],>64 µg/mL
same,MBC,[11],64 µg/mL
same,MBC,[12],1 µg/mL
same,MBC,[13],8 µg/mL
same,MBC,[14],32 µg/mL
same,"inhibition (zone of inhibition), disk diffusion",[15]; 1 mg/mL,complete inhibition
same,"inhibition (zone of inhibition), disk diffusion",[15]; 10 mg/mL,complete inhibition
same,"inhibition (zone of inhibition), disk diffusion",[15]; 100 mg/mL,complete inhibition
same,"inhibition (zone of inhibition), disk diffusion","[16]; 1 mg/mL, repeated experiment, FIG. 2",complete inhibition
same,"inhibition (zone of inhibition), disk diffusion",[16]; [22],complete inhibition
same,"inhibition (zone of inhibition), disk diffusion",[16]; [23],complete inhibition
same,"inhibition (zone of inhibition), disk diffusion","[16]; 1% aqueous solution, FIG. 1",complete inhibition
same,"inhibition (zone of inhibition), disk diffusion","[16]; 2% aqueous solution, FIG. 1",complete inhibition
same,MIC,[17],>64 µg/mL
same,MIC,[18],>64 µg/mL
same,MIC,[19],>64 µg/mL
same,MIC,[20],8 µg/mL
same,"inhibition (zone of inhibition), disk diffusion",[21]; [22],complete inhibition
same,"inhibition (zone of inhibition), disk diffusion",[21]; [23],complete inhibition
same,"inhibition (zone of inhibition), disk diffusion","[21]; 1% aqueous solution, FIG. 1",complete inhibition
same,"inhibition (zone of inhibition), disk diffusion","[21]; 2% aqueous solution, FIG. 1",complete inhibition
